Assay results as given in ChEMBL document CHEMBL1201862, “PubChem BioAssay data set” (2004).
Active and inactive are the calls of the source.

How the values were obtained:
[1] = molecular target: Cytochrome P450 2C9 (Homo sapiens, UniProt P11712)
[2] = molecular target: Luciferin 4-monooxygenase (Photinus pyralis, UniProt P08659); assay: firefly luciferase enzyme inhibitors, dose response, biochemical, luminescence (AID 1891)
[3] = Luminescence Cell-Based Dose Confirmation HTS to Identify Inhibitors of Platelet Dense Granule Release. [Related pubchem assays: 1663 (Primary HTS), 1678 (Summary of Project)]; format: functional
[4] = molecular target: Cytochrome P450 2D6 (Homo sapiens, UniProt P10635);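 also: CYP2D6 member of a cytochrome P450 panel assay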
[5] = molecular target: T1, Heat shock factor protein 1 (Mus musculus, UniProt P38532); assay: HSF1 potentiators in luciferase reporter cells, confirmation, cell-based, NIH3T3, luminescence, dose retest (AID 435004); format: functional;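 also: stress induced by proteasome inhibitor MG132 added 30 min after compound; luciferase reporter driven by HSF1 response element in NIH3T3 cells; actives raise luminescence as potentiators of the MG132 stress response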
T1 sequence (P38532 whole entry): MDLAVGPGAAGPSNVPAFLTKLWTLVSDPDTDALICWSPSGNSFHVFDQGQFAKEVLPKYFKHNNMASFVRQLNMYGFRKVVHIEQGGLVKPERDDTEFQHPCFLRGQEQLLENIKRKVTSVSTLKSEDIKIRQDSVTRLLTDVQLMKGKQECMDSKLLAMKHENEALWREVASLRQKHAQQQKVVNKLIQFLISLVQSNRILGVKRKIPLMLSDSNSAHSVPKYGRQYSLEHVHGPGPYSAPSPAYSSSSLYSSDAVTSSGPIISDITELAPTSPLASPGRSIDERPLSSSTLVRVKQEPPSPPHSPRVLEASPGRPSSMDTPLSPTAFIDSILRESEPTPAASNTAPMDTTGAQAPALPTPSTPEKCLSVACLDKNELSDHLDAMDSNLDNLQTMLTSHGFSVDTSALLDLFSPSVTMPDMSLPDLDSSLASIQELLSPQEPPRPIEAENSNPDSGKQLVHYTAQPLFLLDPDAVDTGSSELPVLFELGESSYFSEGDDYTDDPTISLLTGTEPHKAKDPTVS

[6] = molecular target: T2, Coagulation factor XII (Homo sapiens, UniProt P00748); format: functional;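 also: activated factor XIIa alpha cleaving a fluorogenic AMC peptide substrate; inhibitor potency from loss of enzyme activity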
T2 sequence (P00748 whole entry): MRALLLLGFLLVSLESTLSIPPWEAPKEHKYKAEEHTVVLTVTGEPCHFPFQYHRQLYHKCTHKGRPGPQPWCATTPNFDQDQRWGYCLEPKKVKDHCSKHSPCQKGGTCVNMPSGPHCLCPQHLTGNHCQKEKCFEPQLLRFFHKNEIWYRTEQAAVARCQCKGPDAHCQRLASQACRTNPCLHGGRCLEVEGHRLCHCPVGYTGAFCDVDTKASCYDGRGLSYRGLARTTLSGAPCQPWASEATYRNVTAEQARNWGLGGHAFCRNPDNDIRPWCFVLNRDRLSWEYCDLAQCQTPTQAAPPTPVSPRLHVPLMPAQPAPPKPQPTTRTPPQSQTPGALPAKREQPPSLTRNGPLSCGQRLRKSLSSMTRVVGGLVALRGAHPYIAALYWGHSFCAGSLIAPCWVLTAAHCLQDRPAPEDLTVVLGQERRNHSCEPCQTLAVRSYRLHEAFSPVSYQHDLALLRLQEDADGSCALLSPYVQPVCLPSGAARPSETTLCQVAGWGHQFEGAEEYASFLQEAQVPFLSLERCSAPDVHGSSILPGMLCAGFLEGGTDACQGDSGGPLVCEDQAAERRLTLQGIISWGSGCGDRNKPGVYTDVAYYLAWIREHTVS

[7] = molecular target: T3, Replicative DNA helicase DnaB (Mycobacterium tuberculosis, UniProt P9WMR3); assay: DnaB intein splicing inhibitors, dose response, biochemical, cell-free fluorescence (AID 449749); format: functional
T3 sequence (P9WMR3 whole entry): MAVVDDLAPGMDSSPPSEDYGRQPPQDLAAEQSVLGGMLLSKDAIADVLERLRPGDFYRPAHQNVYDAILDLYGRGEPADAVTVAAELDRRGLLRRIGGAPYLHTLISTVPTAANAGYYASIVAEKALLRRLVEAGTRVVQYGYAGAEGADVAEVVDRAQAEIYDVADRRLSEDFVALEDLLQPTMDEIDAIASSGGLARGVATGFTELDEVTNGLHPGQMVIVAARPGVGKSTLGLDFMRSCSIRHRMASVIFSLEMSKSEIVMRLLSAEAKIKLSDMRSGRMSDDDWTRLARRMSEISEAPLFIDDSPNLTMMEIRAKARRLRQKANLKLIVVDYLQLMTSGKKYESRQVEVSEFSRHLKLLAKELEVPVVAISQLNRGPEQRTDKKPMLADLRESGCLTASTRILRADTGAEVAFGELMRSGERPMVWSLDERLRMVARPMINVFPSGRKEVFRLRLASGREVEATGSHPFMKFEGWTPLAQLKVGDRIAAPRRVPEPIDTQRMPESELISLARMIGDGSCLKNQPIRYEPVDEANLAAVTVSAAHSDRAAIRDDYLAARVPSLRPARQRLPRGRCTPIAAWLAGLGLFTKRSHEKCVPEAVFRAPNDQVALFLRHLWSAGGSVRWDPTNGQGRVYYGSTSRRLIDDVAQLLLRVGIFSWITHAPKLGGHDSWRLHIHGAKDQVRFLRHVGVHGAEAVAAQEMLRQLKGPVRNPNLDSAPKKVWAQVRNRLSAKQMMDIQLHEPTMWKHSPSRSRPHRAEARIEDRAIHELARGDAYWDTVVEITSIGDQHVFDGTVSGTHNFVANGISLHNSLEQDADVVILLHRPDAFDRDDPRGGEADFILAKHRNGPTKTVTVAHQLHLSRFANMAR

[8] = molecular target: T4, Protein RecA (Mycobacterium tuberculosis, UniProt P9WHJ3); assay: Fluorescence Cell-Free Homogeneous Dose Retest to Identify Inhibitors of RecA-Intein Splicing Activity. [Related pubchem assays (depositor defined):AID2097, AID2223, AID489010, AID492950]; format: functional
T4 sequence (P9WHJ3 whole entry): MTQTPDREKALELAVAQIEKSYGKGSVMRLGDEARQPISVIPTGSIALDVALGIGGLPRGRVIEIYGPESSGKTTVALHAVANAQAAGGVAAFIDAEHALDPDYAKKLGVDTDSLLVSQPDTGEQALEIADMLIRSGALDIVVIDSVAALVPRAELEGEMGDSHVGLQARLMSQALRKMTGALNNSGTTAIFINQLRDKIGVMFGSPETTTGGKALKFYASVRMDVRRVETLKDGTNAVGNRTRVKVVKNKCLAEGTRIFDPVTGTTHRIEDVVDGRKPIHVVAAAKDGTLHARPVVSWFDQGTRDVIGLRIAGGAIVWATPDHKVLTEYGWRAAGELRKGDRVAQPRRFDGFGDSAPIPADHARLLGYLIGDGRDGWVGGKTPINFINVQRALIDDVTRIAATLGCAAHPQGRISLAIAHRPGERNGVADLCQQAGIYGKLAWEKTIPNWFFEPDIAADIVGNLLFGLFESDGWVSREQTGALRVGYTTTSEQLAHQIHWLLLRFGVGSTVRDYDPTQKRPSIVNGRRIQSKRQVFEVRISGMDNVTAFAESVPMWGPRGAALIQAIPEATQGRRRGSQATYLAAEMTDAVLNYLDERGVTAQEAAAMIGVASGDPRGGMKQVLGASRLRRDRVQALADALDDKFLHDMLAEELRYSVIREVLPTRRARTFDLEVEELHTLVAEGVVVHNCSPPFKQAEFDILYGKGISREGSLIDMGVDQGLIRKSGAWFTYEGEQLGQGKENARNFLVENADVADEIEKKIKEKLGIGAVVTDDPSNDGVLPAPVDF

[9] = molecular target: Paired box protein Pax-8 (Homo sapiens, UniProt Q06710); assay: inhibitors of PAX8-driven TPO luciferase reporter, dose response, RMG-I cells, cherry-pick (AID 687027); format: functional, cell-based;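 also: luciferase reporter driven by Pax8 target thyroperoxidase promoter measured by SteadyGlo luminescence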
[10] = molecular target: Cytochrome P450 2C19 (Homo sapiens, UniProt P33261); assay: Cytochrome panel assay with activity outcomes. Panel member name: p450-cyp2c19 Compounds with AC50 equal or less than 10 uM are considered active; format: functional; settings: read-out: AC50
[11] = growth suppression of PTEN-null colon cells, dose response, cell-based, HCT116 PTEN knockout (AID 1047); format: functional;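 also: HCT116 colon tumor cells with PTEN knocked out; cells exposed to compound for 60 hours before readout; potency for loss of cell viability measured by luminescence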
[12] = test system: INS1; assay: beta cell apoptosis inhibitors, cytokine rescue, dose response, luminescence, retest (AID 449756); format: functional, cell-based; settings: Rattus norvegicus;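 also: cell death triggered by IL-1 beta plus TNF-alpha plus IFN-gamma mixture; protective hits raise ATP signal compared with cytokine alone wells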
[13] = molecular target: Cytochrome P450 3A4 (Homo sapiens, UniProt P08684);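 also: CYP3A4 tested as one member of a cytochrome P450 panel screen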
Chain of Cytochrome P450 3A4 (P08684 whole entry): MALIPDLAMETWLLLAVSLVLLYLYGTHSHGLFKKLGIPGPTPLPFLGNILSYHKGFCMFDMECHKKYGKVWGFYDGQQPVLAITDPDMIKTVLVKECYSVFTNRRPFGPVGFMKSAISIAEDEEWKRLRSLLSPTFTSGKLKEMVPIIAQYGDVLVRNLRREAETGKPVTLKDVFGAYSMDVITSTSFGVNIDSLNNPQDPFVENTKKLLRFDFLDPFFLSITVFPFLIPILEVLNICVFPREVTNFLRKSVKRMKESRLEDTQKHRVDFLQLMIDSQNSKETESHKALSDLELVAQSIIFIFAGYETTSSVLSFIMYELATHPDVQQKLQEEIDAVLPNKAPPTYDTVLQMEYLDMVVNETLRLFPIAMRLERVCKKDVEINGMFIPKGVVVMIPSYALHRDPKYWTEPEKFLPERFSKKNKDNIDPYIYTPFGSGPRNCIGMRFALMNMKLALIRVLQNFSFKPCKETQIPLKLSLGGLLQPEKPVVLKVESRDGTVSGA

Chain of Cytochrome P450 2C9 (P11712 whole entry): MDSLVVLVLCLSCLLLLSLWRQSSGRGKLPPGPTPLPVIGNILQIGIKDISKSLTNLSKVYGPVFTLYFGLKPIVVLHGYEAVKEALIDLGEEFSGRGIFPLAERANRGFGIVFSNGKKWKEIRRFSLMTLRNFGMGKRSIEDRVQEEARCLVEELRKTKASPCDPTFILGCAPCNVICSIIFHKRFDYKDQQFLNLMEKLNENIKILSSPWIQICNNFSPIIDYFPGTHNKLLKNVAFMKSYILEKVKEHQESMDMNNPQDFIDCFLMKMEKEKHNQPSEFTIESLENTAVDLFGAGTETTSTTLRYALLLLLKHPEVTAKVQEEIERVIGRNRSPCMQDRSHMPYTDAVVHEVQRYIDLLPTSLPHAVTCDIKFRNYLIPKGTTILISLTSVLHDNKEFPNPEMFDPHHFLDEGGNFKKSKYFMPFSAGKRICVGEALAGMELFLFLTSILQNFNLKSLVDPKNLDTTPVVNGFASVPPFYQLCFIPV
Chain of Cytochrome P450 2C19 (P33261 whole entry): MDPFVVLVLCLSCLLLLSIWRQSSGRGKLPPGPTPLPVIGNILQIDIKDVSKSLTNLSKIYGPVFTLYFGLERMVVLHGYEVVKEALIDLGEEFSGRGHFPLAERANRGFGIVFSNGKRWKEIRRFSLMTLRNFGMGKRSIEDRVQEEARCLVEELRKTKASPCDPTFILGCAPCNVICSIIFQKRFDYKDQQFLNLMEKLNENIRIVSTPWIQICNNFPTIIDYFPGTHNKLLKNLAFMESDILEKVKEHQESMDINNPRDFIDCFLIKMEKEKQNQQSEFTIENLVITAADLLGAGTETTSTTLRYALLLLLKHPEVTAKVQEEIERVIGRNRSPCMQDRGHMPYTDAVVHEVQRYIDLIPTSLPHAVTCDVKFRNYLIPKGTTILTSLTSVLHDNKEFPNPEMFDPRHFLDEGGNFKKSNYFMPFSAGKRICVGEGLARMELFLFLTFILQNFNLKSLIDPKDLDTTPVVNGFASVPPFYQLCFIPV
Chain of Cytochrome P450 2D6 (P10635 whole entry): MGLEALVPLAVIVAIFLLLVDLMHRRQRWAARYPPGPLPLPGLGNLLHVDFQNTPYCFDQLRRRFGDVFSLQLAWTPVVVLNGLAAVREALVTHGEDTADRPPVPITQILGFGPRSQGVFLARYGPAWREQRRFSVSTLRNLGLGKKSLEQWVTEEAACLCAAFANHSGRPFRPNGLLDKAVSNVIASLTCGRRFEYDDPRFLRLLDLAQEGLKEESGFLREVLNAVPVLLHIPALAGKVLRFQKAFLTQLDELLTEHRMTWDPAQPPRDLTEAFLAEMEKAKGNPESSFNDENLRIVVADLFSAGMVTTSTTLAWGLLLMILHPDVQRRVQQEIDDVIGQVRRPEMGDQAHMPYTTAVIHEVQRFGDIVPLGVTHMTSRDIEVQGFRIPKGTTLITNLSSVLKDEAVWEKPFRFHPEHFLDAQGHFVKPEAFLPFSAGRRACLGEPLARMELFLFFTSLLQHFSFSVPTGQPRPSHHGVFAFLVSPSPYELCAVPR
Chain of Luciferin 4-monooxygenase (P08659 whole entry): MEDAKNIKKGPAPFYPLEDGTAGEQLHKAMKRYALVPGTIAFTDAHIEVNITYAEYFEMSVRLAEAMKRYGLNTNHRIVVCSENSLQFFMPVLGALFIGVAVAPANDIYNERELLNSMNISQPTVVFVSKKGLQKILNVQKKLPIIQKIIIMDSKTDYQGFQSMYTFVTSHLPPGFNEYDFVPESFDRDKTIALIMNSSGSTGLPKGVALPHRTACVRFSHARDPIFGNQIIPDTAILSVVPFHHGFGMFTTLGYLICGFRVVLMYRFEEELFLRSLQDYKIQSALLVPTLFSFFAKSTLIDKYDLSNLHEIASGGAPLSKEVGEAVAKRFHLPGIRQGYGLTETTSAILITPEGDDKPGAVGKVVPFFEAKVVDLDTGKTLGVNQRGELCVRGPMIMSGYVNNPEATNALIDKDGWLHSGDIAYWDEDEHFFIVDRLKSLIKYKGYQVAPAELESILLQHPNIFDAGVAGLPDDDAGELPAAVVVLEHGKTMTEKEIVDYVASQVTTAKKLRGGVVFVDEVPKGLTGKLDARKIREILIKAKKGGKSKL
Chain of Paired box protein Pax-8 (Q06710 whole entry): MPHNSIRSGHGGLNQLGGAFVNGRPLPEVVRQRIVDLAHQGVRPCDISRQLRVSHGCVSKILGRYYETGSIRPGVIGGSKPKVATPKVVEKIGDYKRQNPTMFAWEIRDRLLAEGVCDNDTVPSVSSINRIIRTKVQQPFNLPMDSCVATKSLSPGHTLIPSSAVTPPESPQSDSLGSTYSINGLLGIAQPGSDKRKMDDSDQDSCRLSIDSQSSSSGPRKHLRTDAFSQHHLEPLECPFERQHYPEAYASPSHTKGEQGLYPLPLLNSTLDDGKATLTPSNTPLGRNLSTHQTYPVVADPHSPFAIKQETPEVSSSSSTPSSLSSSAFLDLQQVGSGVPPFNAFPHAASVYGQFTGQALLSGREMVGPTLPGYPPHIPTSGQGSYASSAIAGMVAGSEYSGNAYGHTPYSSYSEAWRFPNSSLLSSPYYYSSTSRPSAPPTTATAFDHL

For Nc1ccccc1Oc1ncc(C(F)(F)F)cc1Cl, the AC50 [1] was “inconclusive”.
For CCC1CCCN1Cn1cnc2c3cc(Cl)ccc3nc-2c1O (centres undefined), the EC50 [2] was > 112 µM (not active) and the EC50 [3] was 48.3 µM (active).
With COCCNc1cc(-c2ccccc2CN(C)C)ncn1 the AC50 [4] was 31.6 µM (inconclusive) and the AC50 [1] was “inconclusive”.
With CSc1nc(S(=O)(=O)c2ccc(C)cc2)c(Cl)s1 the EC50 [5] was > 260 µM (inactive).
For COc1ccc2c(c1)CCc1sc(NC(=O)c3ccc(C)cc3)nc1-2, the IC50 [6] was > 50 µM (inactive).
For O=C(CF)NC(NC(S)=Nc1ccccc1O)C(Cl)(Cl)Cl (centres undefined), the EC50 [5] was > 260 µM (inactive).
With CCCc1noc2c1C(c1ccoc1)C(C#N)=C(N)N2 (centres undefined) the EC50 [2] was > 112 µM (not active), the EC50 [3] was > 112 µM (not active) and the AC50 [7] was 157 µM (active). The EC50 [8] was 1.06 µM (active).
With C=CCOc1ccccc1OC[C@H](O)CNC(C)C [OXPRENOLOL] the AC50 [4] was 7.94 µM (inconclusive) and the AC50 [1] was “inconclusive”.
For Cc1csc(NC(=O)C(CC(C)C)NS(=O)(=O)c2ccc3c(c2)oc(=O)n3C)n1 (centres undefined), the IC50 [6] was > 50 µM (inactive).
With Cc1ccc(C(=O)NCCNc2ccc(Cl)cc2[N+](=O)[O-])o1 the IC50 [6] was > 50 µM (inactive) and the AC50 [4] was 20 µM (inconclusive).
For C[C@H]1CCCCO[C@H](CN(C)C(=O)Nc2ccc(C(F)(F)F)cc2)[C@@H](C)CN([C@@H](C)CO)C(=O)c2cc(NC(=O)c3ccncc3)ccc2O1, the AC50 [9] was 17.1 µM (active).
In the case of O=C(CN(c1cccc([N+](=O)[O-])c1)S(=O)(=O)c1ccccc1)NCc1ccccc1, the EC50 [2] is reported as > 112 µM (not active) and the EC50 [3] is reported as 46.7 µM (active).
With CC/C(=N\NC(=O)Nc1ccccc1)c1ccccc1 the EC50 [2] was > 112 µM (not active) and the EC50 [3] was > 112 µM (not active).
In the case of CN(C)c1ccc(-c2nc(N(C)C)c3ccccc3n2)cc1, the AC50 [10] is reported as 39.8 µM (inconclusive) and the AC50 [1] is reported as “inconclusive”.
For COCCCN(C(=O)Cc1ccc(Cl)c(Cl)c1)c1c(N)n(Cc2ccccc2)c(=O)[nH]c1=O, the EC50 [2] was > 112 µM (not active) and the EC50 [3] was > 112 µM (not active).
In the case of CC(C)CCCCCCN=C(S)Nc1ccc(S(=O)(=O)N2CCOCC2)cc1, the EC50 [11] is reported as 77 µM (active) and the AC50 [12] is reported as 7.7 µM (active).
With O=C(CSC1=NCCN1)Nc1cccc(C(F)(F)F)c1 the EC50 [5] was > 260 µM (inactive).
For Cc1nc(O)nc(O)c1/C=N/NC(=O)[C@@H](N)CC(C)C, the IC50 [6] was > 50 µM (inactive).
For Cc1nc(-c2ccc(Cl)cc2)sc1C(=O)CBr, the EC50 [5] was 70.2 µM (active).
With O=C(Nc1ccccc1C(=O)N/N=C/c1ccco1)c1ccc(F)cc1 the EC50 [2] was 0.295 µM (active) and the EC50 [3] was 10.4 µM (active).
In the case of CCOC(=O)CC(NC(=O)C1c2ccccc2Oc2ccccc21)c1ccccc1Cl (centres undefined), the EC50 [5] is reported as > 260 µM (inactive).
For Cc1nonc1C(=O)N/N=C/c1cccc(O)c1, the EC50 [2] was 13.5 µM (active) and the EC50 [3] was 4.56 µM (active).
In the case of CCN(C(=O)COC(=O)c1c2c(nc3ccccc13)/C(=C/c1ccccc1)CC(C)C2)C1CCS(=O)(=O)C1 (centres undefined), the EC50 [5] is reported as 14.3 µM (active).
With Cn1nnnc1SCCNC/C=C/c1ccccc1 the EC50 [5] was > 260 µM (inactive).
In the case of Cc1ccc2c(c1)N(CCC(=O)NCC1CCCO1)C(=O)CO2 (centres undefined), the AC50 [13] is reported as 25.1 µM (inconclusive) and the AC50 [1] is reported as “inconclusive”.
For O=C(CS(=O)(=O)c1cn(Cc2ccc(Cl)cc2)c2ccccc12)N1CCOCC1, the IC50 [6] was > 50 µM (inactive).
In the case of Cc1cc(C)c2cc(C(=O)N(C)C3CCN(C)CC3)[nH]c2c1, the EC50 [5] is reported as > 260 µM (inactive).
For COc1ccccc1NC(=O)c1ccc(-n2cccn2)nc1, the AC50 [10] was 25.1 µM (inconclusive) and the AC50 [1] was “inconclusive”.
For Cc1cc(C(=O)CC#N)c(C)n1CC(F)(F)F, the AC50 [10] was 22.4 µM (inconclusive) and the AC50 [1] was “inconclusive”.
In the case of CCOc1ccc(CCNC(=O)c2oc3c(c2C)-c2n[nH]cc2CC3)cc1OCC, the EC50 [2] is reported as > 112 µM (not active) and the EC50 [3] is reported as > 112 µM (not active).
In the case of NC(=O)c1c(N)sc2c1CCC2, the IC50 [6] is reported as > 50 µM (inactive).
